Patent publication US20210275514A1, “COMPOUNDS FOR USE IN TREATING KIDNEY DISORDERS” (Hoffmann-La Roche Inc., priority 2018, published 2021)
Entries after “also recorded” stand apart in the source; their conditions may differ.

What was measured:
ADR-injected Balb/c mice = assay: Toxicity by serology in ADR-injected mice (WBC, hemoglobin, hematocrit, transaminases); assay type: in vivo, mouse; details: for ALT / HCT / HEMOGLOBIN / WBC: 35-day treatment, ADR-injected; for liver toxicity and blood dyscrasias (serology): all treated animals
Excerpt: We next investigated compounds C, A and G toxicity by serology. More specifically, we determined hematocrit, hemoglobin white cell blood count and liver transaminases ALT and AST of all treated animals to determine if liver toxicity and blood dyscrasias were associated with the compounds.

[1] = system: ADR-induced nephropathy in Balb/c mice; assay: Adriamycin-induced kidney damage, dose finding experiment, 35 days; assay type: in vivo, mouse; details: for Albuminuria / proteinuria / Body weight loss: 5 weeks after ADR; for TOTAL CHOL (blood) / TRIGLYCERIDES (blood): 35 days after ADR injection
Description: First, we performed a preliminary experiment to explore the best dose of compounds to be used and to determine if other experimental variables needed to be adjusted. In this experiment, 30 mice received a single dose of Adriamycin (Sigma-Aldrich, 12 mg/Kg, via tail vein injection) and then were randomly separated into 6 groups of 5 mice each. Another 5 mice were injected with 0.9% NaCl by the same route and were used as a no-kidney injury baseline group. Starting 24 h after ADR injection, vehicle, or different doses of compounds, were given once daily by oral gavage for 35 days. The doses of compounds tested were the following: LXR agonist (Cpd C, 10 mg/Kg); ABCA1 inducers Cpd A and Cpd G (30 mg/Kg and 100 mg/Kg). Body weight measurements and spot urine collection was done once a week. Animals were sacrificed 35 days after ADR injection (FIG. 1).
(§1) Spot urine samples were collected for all mice at baseline and time of sacrifice. Urinary albumin and creatinine were determined using an albumin ELISA kit (Bethyl laboratories) and a colorimetric assay for creatinine determination (Stanbio). Albuminuria was calculated and expressed as μg of albumin divided by mg of creatinine. For diabetic mouse model, weight and glycaemia were measured on a bi-weekly basis.

[2] = system: ADR-induced nephropathy in Balb/c mice; assay: Adriamycin-induced kidney damage, second experiment, 28 days; assay type: in vivo, mouse; details: for TOTAL CHOL (blood) / TRIGLYCERIDES (blood): 28 days after ADR injection; for Albuminuria / Body weight loss: 4 weeks after ADR
Description: A second experiment was repeated to confirm the improvement of renal function attained with the doses of Cpd A and G in the first experiment. Briefly, 30 female Balb/c mice of 8 weeks age were injected with 12 mg/Kg of ADR by via tail vein and the mice were randomly distributed into 5 groups of 6 animals each. Animals were given vehicle or compounds by oral gavage once daily for 28 days starting one day after ADR injection. The following doses of compounds were tested: Cpd C, 10 mg/Kg/day; Cpd A, 30 mg/Kg/day and Cpd G, 30 mg/Kg/day and 100 mg/Kg/day. A group of 5 animals that received saline solution via tail vein injection and were treated with vehicle were used as healthy baseline control. Body weight measurements and spot urine collection was done once a week. Animals were sacrificed 28 days after ADR injection (FIG. 2).
as §1
At time of sacrifice blood was collected in heparinized tubes and mice were perfused via left ventricle perfusion with isotonic saline solution. Kidney cortex was carefully excised and further sectioned for the fallowing analysis: determination of podocyte number, lipid droplet staining, electron microscopy (EM), renal lipids content assays, PAS& HE staining for pathological evaluation.
Lipid droplet staining Filtered Oil-Red O-Isopropanol solution (Electron Microscopy Science, PA) was diluted with water (6:4). 4 μm kidney sections were incubated with 100 μl freshly prepared Oil-Red O solution (ORO) for 15 minutes and counterstained with Hematoxylin Harris Hg Free (VWR, PA) to detect lipid deposition. Glomeruli staining was evaluated using a light microscope (Olympus BX 41, Tokyo, Japan).
Renal lipids species assays. Kidney cortex sections were snap frozen and utilized for lipid extraction and cholesterol content determination. The tissue was homogenized in 2 mM potassium phosphate buffer in a glass douncer on ice. Lipids in 100 μl homogenate (˜5-10 mg tissue) were extracted with 1 ml hexane:isopropanol (3:2) for two sequential 30-minute extractions. The solvent containing lipids was then dried in Nitrogen atmosphere. Lipids were then reconstituted using isopropanol: NP-40 (9:1) and cholesterol content was quantified using the Amplex red cholesterol assay kit (Invitrogen) according to the manufacturers protocol. Triglycerides in lipid extracts were assayed with a colorimetric kit according to manufacturer's instructions (Cayman). Total cholesterol and cholesterol esters were assayed using an enzymatic fluorometric method. For total cholesterol renal lipid extracts were diluted in assay buffer (100 mM potassium phosphate, 50 mM NaCl, 5 mM cholic acid, 0.1% […], pH 7.4) and incubated with same buffer supplemented with a final concentration of 1 U/ml cholesterol oxidase, 1 U/ml cholesterol esterase, 1 U/ml horseradish peroxidase, and 75 μM Amplex Red. The reactions were incubated at 37° C. for 30 min in a black opaque 96 well plate (Greiner) and fluorescence was measured in a microplate reader (Spectramax i3X, Molecular Devices) using 530 nm excitation and 580 emission.
Cholesterol esters were assayed using a direct method described by Mizoguchi et al (Mizoguchi, 2004). Briefly 150 μl of FC decomposition reagent (45 U/ml bovine catalase and 1 U/ml cholesterol oxidase, in assay buffer described above) was added to 25 μl of sample containing up to 1 mM total cholesterol. Free cholesterol was allowed to decompose overnight at 37° C. and then 75 μl of 4× cholesterol ester detection reagent (1 U/ml cholesterol oxidase, 4 U/ml cholesterol esterase, 24 U/ml horseradish peroxidase, 300 μM Amplex Red) was added. […]

ABCA1 = ABCA1 expression by western blot in differentiated podocytes; assay type: cell-based, human; details: 18 h
Description: Podocytes differentiated for 14 days were starved in RPMI-0.2% FBS for 18 h and then treated with freshly prepared dilutions of compounds in full media for 18 h at 37° C. and 5% CO2. Compound concentrations of 1 μM, 5 μM and 10 μM were evaluated. Cells were then washed with PBS and lysed with 1× cell lysis buffer (Cell Signaling) supplemented with protease and phosphatase inhibitor cocktails (Roche). Total protein content was determined by BCA method (Pierce, Thermoscientific). ABCA1 expression was analyzed by western blot.
Lysates, or cell fractions were incubated with buffer sample at 55° C. for 10 min under reducing conditions. A total of […] of protein in lysates, and one third of the volume collected in cell fraction preps, were separated by SDSPAGE in 4-20% gels (Biorad) and proteins were then transferred to PVDF membranes. Membranes were blocked with 5% milk and blotted with protein-specific antibodies for 18 h at 4° C. The following antibodies were used: mouse anti-ABCA1 (Abcam; 1:1,000), rabbit anti-GAPDH antibody (Millipore; 1:10,000), rabbit anti-MEK and anti-Na^+/K^+ ATPase (Cell Signaling; 1:1,000). After washing with PBS-T, membranes were incubated with anti-mouse and anti-rabbit specific antibodies conjugated to HRP (Promega) 1:10,000 in 5% milk. Membranes were washed and signal was developed using Western bright ECL substrate (Advansta).

[3] = 100 mg/Kg once daily oral gavage
[4] = 30 mg/Kg once daily oral gavage

Compound `Cc1oc(-c2cccc(C(F)(F)F)c2)nc1Cn1c(C)cc2cc(C(O)(C(F)(F)F)C(F)(F)F)ccc21` [Cpd C, 1,1,1,3,3,3-Hexafluoro-2-{2-methyl-1-[5-methyl-2-(3-trifluoromethyl-phenyl)-oxazol-4-ylmethyl]-1H-indol-5-yl}-propan-2-ol, reference compound] has an ALT (ADR-injected Balb/c mice; 10 mg/Kg) of 213.0 ± 151.7 U/L, an HCT (ADR-injected Balb/c mice; 10 mg/Kg) of 44.8 ± 1.5% and an HEMOGLOBIN (ADR-injected Balb/c mice; 10 mg/Kg) of 12.2 ± 1.0 g/dL. For the same compound, the WBC (ADR-injected Balb/c mice; 10 mg/Kg) was 7.6 ± 4.4 ×10^∧3 cells/ul, the “liver toxicity and blood dyscrasias (serology)” value (ADR-injected Balb/c mice) was “No apparent signs of such toxicities” and the ALT (ADR-injected Balb/c mice; first ALT line (r15), 10 mg/Kg) was 299.5 ± 365.0 U/L. The Albuminuria / proteinuria ([1]; 10 mg/Kg once daily oral gavage) was “No significant differences”, the “TOTAL CHOL (blood)” value ([1]; 10 mg/Kg) was 117.4 ± 66.8 mg/dL and the TRIGLYCERIDES (blood) ([1]; 10 mg/Kg) was 57.2 ± 6.3 mg/dL. The “TOTAL CHOL (blood)” value ([2]; 10 mg/Kg) was 119.8 ± 19.9 mg/dL, the TRIGLYCERIDES (blood) ([2]; 10 mg/Kg) was 110 ± 53.5 mg/dL and the “ABCA1 expression (western blot, whole cell lysates)” value (shortened to “ABCA1 expression”) (ABCA1; doses as low as 1 uM, FIG. 4A) was “strong induction; also recorded: markedly increased”.
In the case of `O=C(N[C@@H]1CCCC[C@H]1O)c1cnc(OCC(F)(F)F)c(-c2ccc(Cl)c(Cl)c2)c1` [Cpd G, 5-(3,4-dichloro-phenyl)-N-((1R,2R)-2-hydroxy-cyclohexyl)-6-(2,2,2-trifluoro-ethoxy)-nicotinamide], the ALT (ADR-injected Balb/c mice; 30 mg/Kg) is reported as 323.4 ± 87.1 U/L, the HCT (ADR-injected Balb/c mice; 30 mg/Kg) is reported as 49.5 ± 4.4% and the HEMOGLOBIN (ADR-injected Balb/c mice; 30 mg/Kg) is reported as 12.9 ± 1.0 g/dL. The WBC (ADR-injected Balb/c mice; 30 mg/Kg) was 6.3 ± 1.2 ×10^∧3 cells/ul, the ALT (ADR-injected Balb/c mice; 100 mg/Kg) was 212.4 ± 91.1 U/L and the HCT (ADR-injected Balb/c mice; 100 mg/Kg) was 49.6 ± 2.3%. For the same compound, the HEMOGLOBIN (ADR-injected Balb/c mice; 100 mg/Kg) was 13.1 ± 0.6 g/dL, the WBC (ADR-injected Balb/c mice; 100 mg/Kg) was 4.7 ± 1.6 ×10^∧3 cells/ul and the “liver toxicity and blood dyscrasias (serology)” value (ADR-injected Balb/c mice) was “No apparent signs of such toxicities”. The ALT (ADR-injected Balb/c mice; first ALT line (r15), 30 mg/Kg) was 181.6 ± 69.0 U/L, the ALT (ADR-injected Balb/c mice; first ALT line (r15), 100 mg/Kg) was 191.4 ± 79.9 U/L and the “TOTAL CHOL (blood)” value ([1]; 30 mg/Kg) was 136.3 ± 38.9 mg/dL. The TRIGLYCERIDES (blood) ([1]; 30 mg/Kg) was 51 ± 16.8 mg/dL, the Albuminuria / proteinuria [1, 3] was “attenuated; also recorded: reduced” and the Body weight loss [1, 3] was “partially attenuated; also recorded: prevented”. The “TOTAL CHOL (blood)” value ([1]; 100 mg/Kg) was 109.7 ± 11.0 mg/dL, the TRIGLYCERIDES (blood) ([1]; 100 mg/Kg) was 62 ± 16.5 mg/dL and the “TOTAL CHOL (blood)” value ([2]; 30 mg/Kg) was 112.0 ± 13.6 mg/dL. For the same compound, the TRIGLYCERIDES (blood) ([2]; 30 mg/Kg) was 120 ± 18.8 mg/dL, the Albuminuria ([2]; 100 mg/Kg once daily) was “significantly reduce; also recorded: reduced” and the Body weight loss ([2]; 100 mg/Kg once daily) was “significantly reduce; also recorded: reduced”. The “deposition of lipid droplets in the kidneys (Oil Red O staining)” value ([2]; 100 mg/Kg, 28 days) was “significantly reduced”, the “TOTAL CHOL (blood)” value ([2]; 100 mg/Kg) was 101.1 ± 12.8 mg/dL and the TRIGLYCERIDES (blood) ([2]; 100 mg/Kg) was 121 ± 19.3 mg/dL. For the same compound, the “global glomerular sclerosis (blind pathological study of kidney cortex)” value ([2]; 100 mg/Kg/day, 4 weeks) was “reduction”, the interstitial inflammation ([2]; 100 mg/Kg/day, 4 weeks) was “reduction” and the podocyte hyperplasia ([2]; 100 mg/Kg/day, 4 weeks) was “reduction”. For the same compound, the podocyte hypertrophy ([2]; 100 mg/Kg/day, 4 weeks) was “reduction”, the segmental glomerular sclerosis ([2]; 100 mg/Kg/day, 4 weeks) was “reduction” and the tubular microcysts ([2]; 100 mg/Kg/day, 4 weeks) was “reduction”. The “esterified cholesterol content in kidney cortex” value ([2]; 28 days, normalized to total protein) was “reduces accumulation of esterified cholesterol; also recorded: significantly reduced”, the physical appearance ([2]; optimal dose (100 mg/Kg), 3rd and 4th week of treatment) was “better physical appearance” and the “ABCA1 expression” value (ABCA1; 10 uM) was “modest induction; also recorded: modest increase; also recorded: increased ABCA1 expression”.
For `O=C(N[C@@H]1CCCC[C@H]1O)c1ccc(OCC(F)(F)F)c(-c2ccc(Cl)c(Cl)c2)n1` [Cpd A, 6-(3,4-Dichlorophenyl)-N-[(1R,2R)-2-hydroxycyclohexyl]-5-(2,2,2-trifluoroethoxy)pyridine-2-carboxamide], the ALT (ADR-injected Balb/c mice; 30 mg/Kg) was 365.3 ± 181.2 U/L, the HCT (ADR-injected Balb/c mice; 30 mg/Kg) was 51.8 ± 3.3% and the HEMOGLOBIN (ADR-injected Balb/c mice; 30 mg/Kg) was 13.9 ± 1.1 g/dL. The WBC (ADR-injected Balb/c mice; 30 mg/Kg) was 4.6 ± 1.3 ×10^∧3 cells/ul, the “liver toxicity and blood dyscrasias (serology)” value (ADR-injected Balb/c mice) was “No apparent signs of such toxicities” and the ALT (ADR-injected Balb/c mice; first ALT line (r15), 30 mg/Kg) was 339.3 ± 274.8 U/L. For the same compound, the Albuminuria / proteinuria [1, 4] was “attenuated; also recorded: reduced”, the Body weight loss [1, 4] was “partially attenuated; also recorded: prevented” and the “TOTAL CHOL (blood)” value ([1]; 30 mg/Kg) was 86.3 ± 8.8 mg/dL. The TRIGLYCERIDES (blood) ([1]; 30 mg/Kg) was 57.6 ± 15.5 mg/dL, the “TOTAL CHOL (blood)” value ([1]; 100 mg/Kg) was 226.7 ± 173.4 mg/dL and the TRIGLYCERIDES (blood) ([1]; 100 mg/Kg) was 47.3 ± 7.5 mg/dL. The Albuminuria ([2]; 30 mg/Kg once daily) was “significantly reduce; also recorded: reduced”, the Body weight loss ([2]; 30 mg/Kg once daily) was “significantly reduce; also recorded: reduced” and the “TOTAL CHOL (blood)” value ([2]; 30 mg/Kg) was 104.0 ± 31.6 mg/dL. For the same compound, the TRIGLYCERIDES (blood) ([2]; 30 mg/Kg) was 107 ± 23.9 mg/dL, the “ABCA1 expression” value (ABCA1; 5 uM, FIG. 4B) was “modest increase” and the “ABCA1 expression” value (ABCA1; 10 uM) was “modest induction; also recorded: increased ABCA1 expression”.
